Results taken from US20150232509A1, “SPIRO RING COMPOUNDS AS HEPATITIS C VIRUS (HCV) INHIBITORS” (SUNSHINE LAKE PHARMA CO., LTD., priority 2012, published 2015).

Tests used:
HCV GT1b replicon cells = assay: HCV Replicon assay, GT1b replicon cells (Luciferase / NEO qPCR); assay type: cell-based; conditions: Hepatitis C virus, 72 hours incubation, read-out: EC50 against HCV 1b genotype
Experimental: (§1) An HCV Replicon assay was utilized in the present invention, and was prepared, developed and validated as described in Science, 1999, 285 (5424), 110-3 and J. Virol., 2003, 77 (5), 3007-19.
(§2) HCV GT1a, GT1b and GT2a replicon cells were used to test the currently described compound series as well as wild-type cells HCV 1b and resistant cells Y93H, L31F, P32L and 1302V. […]
(§3) The GT1a cells and GT1b cells were seeded into 96-well plates (8,000 cells in 125 μL/well) respectively; each compound was diluted to desired concentration using 5-fold serial dilutions protocol, 10 doses in duplicate, and added to wells with POD™ 810 Plate Assembler. The final concentration of DMSO was 0.5%; the plates were incubated in a CO2 incubator for 72 hours; after that, 40 μL of Luciferase assay substrate (Promega Bright-Glo) was added to each well, and detected by a chemiluminescence detection system (Topcount Microplate Scintillation and Luminescence Counter) 5 minutes later; data analysis.
(§4) The GT1a cells and GT1b cells were seeded into 96-well plates (8,000 cells in 125 μL/well) respectively; each compound was diluted to desired concentration using 5-fold serial dilutions protocol, 10 doses in duplicate, and added to wells with POD™ 810 Plate Assembler., the final concentration of DMSO was 0.5%; the cells were incubated in a CO2 incubator for 72 hours; quantitative PCR. • Sample preparation: the supernatant was removed, 100 μL of FCW buffer solution was added to each well, washed carefully and discarded the solution; 50 μL of lysate FCP was added to each well, the cells was lysed as PCR template and PCR template was diluted with DEPC water as sample template. • Quantitative PCR: preparation of reaction mixture according to PCR system; the reaction mixture was dispensed into a 384-well PCR reaction plate (specially for quantitative); and a standard template which was diluted in proportion was distributed into the plate; and the sample template was distributed into the plate; then the 384-well plate was sealed with closure plate membrane; the […] PCR machine was operated by procedures; data analysis. 3. Data Processing: the EC50 Values of Compounds were Analyzed by GraphPad Prism Software.

HCV GT1a replicon cells = assay: HCV Replicon assay, GT1a replicon cells (Luciferase / NEO qPCR); assay type: cell-based; conditions: Hepatitis C virus, 72 hours incubation, read-out: EC50 against HCV 1a genotype
Experimental: as §1, §2, §3, §4

SMILES	EC50 (HCV GT1b replicon cells) [nM]	EC50 (HCV GT1a replicon cells) [nM]
COC(=O)N[C@H](C(=O)N1CCC[C@H]1c1nc2cc(-c3ccc(-c4ccc5[nH]c([C@@H]6CCCN6C(=O)[C@@H](NC(=O)OC)C(C)C)nc5c4)c4c3CCC43CCCC3)ccc2[nH]1)C(C)C [Example 1]	0.041	0.102
COC(=O)N[C@H](C(=O)N1CCC[C@H]1c1nc(-c2ccc(-c3ccc(-c4c[nH]c([C@@H]5CCCN5C(=O)[C@@H](NC(=O)OC)C(C)C)n4)c4c3C3(CCCC3)CC4)cc2)c[nH]1)C(C)C [Example 2]	0.009	0.325
COC(=O)N[C@H](C(=O)N1CCC[C@H]1c1ncc(-c2ccc(-c3ccc(-c4ccc5[nH]c([C@@H]6CCCN6C(=O)[C@@H](NC(=O)OC)C(C)C)nc5c4)c4c3C3(CCCC3)CC4)cc2)[nH]1)C(C)C [Example 3]	0.032	0.097
COC(=O)N[C@H](C(=O)N1CCC[C@H]1c1ncc(-c2ccc(-c3ccc(-c4ccc5[nH]c([C@@H]6CCCN6C(=O)[C@@H](NC(=O)OC)C(C)C)nc5c4)c4c3CCC43CCCC3)cc2)[nH]1)C(C)C [Example 4]	0.029	0.085
COC(=O)N[C@H](C(=O)N1CCC[C@H]1c1ncc(-c2ccc(-c3ccc(-c4cnc([C@@H]5CCCN5C(=O)[C@@H](NC(=O)OC)C(C)C)[nH]4)c4c3CCC43CCCC3)cc2)[nH]1)C(C)C [Example 5]	0.086	2.49
COC(=O)N[C@H](C(=O)N1CCC[C@H]1c1nc(-c2ccc(-c3ccc(-c4ccc(-c5cnc([C@@H]6CCCN6C(=O)[C@@H](NC(=O)OC)C(C)C)[nH]5)cc4)c4c3CCC43CCCC3)cc2)c[nH]1)C(C)C [Example 6]	0.208	1.37
COC(=O)N[C@H](C(=O)N1CCC[C@H]1c1ncc(C#Cc2ccc(C#Cc3cnc([C@@H]4CCCN4C(=O)[C@@H](NC(=O)OC)C(C)C)[nH]3)c3c2CCC32CCCC2)[nH]1)C(C)C [Example 7]	0.106	0.955
CC(C)[C@H](NC(=O)N1CCOCC1)C(=O)N1CCC[C@H]1c1ncc(-c2ccc(N3CCC(c4cnc([C@@H]5CCCN5C(=O)[C@@H](NC(=O)N5CCOCC5)C(C)C)[nH]4)CC3)c3c2CCC32CCCC2)[nH]1 [Example 8]	1.33	5.44
CCC(C)[C@H](NC(=O)OC)C(=O)N1CCC[C@H]1c1nc2ccc(-c3ccc(-c4ccc(-c5cnc([C@@H]6CCCN6C(=O)[C@@H](NC(=O)OC)C(C)C)[nH]5)cc4)c4c3CCC43CCCC3)cc2[nH]1 (stereo partly drawn) [Example 9]	0.032	0.097
CC(C)[C@H](NC(=O)OC(C)(C)C)C(=O)N1CCC[C@H]1c1ncc(-c2ccc(C3CCC(c4cnc([C@@H]5CCCN5C(=O)[C@@H](NC(=O)OC(C)(C)C)C(C)C)[nH]4)CC3)c3c2CCC32CCCC2)[nH]1 (stereo partly drawn) [Example 10]	3.46	9.86
CNC(=O)N[C@H](C(=O)N1C2CC2C[C@H]1c1nc2ccc(-c3ccc(-c4ccc(-c5cnc([C@@H]6CCCN6C(=O)[C@@H](NC(=O)OC)C(C)C)[nH]5)cc4)c4c3C3(CCCC3)CC4)cc2[nH]1)C(C)C (stereo partly drawn) [Example 11]	0.096	0.447
COC(=O)N[C@@H](C)C(=O)N1CCC[C@H]1c1ncc(-c2ccc(-c3ccc(-c4cnc([C@@H]5CCCN5C(=O)[C@H](C)NC(=O)OC)[nH]4)c4c3C3(CCCC3)CC4)cc2)[nH]1 [Example 12]	0.018	0.856
COC(=O)N[C@H](C(=O)N1CCC[C@H]1c1ncc(C#Cc2ccc(-c3ccc(-c4cnc([C@@H]5CCCN5C(=O)[C@@H](NC(=O)OC)C(C)C)[nH]4)cc3)c3c2CCC32CCCC2)[nH]1)C(C)C [Example 13]	0.032	0.438
COC(=O)N[C@H](C(=O)N1C[C@@H](C)C[C@H]1c1ncc(-c2ccc(-c3ccc(-c4cnc([C@@H]5C[C@H](C)CN5C(=O)[C@@H](NC(=O)OC)C(C)C)[nH]4)c4c3C3(CCCC3)CC4)cc2)[nH]1)C(C)C [Example 14]	0.011	0.785
COC(=O)N[C@H](C(=O)N1CCC[C@H]1c1ncc(-c2ccc(-c3ccc(-c4cnc([C@@H]5CCCN5C(=O)[C@@H](NC(=O)OC)C5CCCCC5)[nH]4)c4c3C3(CCCC3)CC4)cc2)[nH]1)C1CCCCC1 [Example 15]	0.029	0.886
